Common to all, as to format: physicochemical
A short description of data set [1]: Partition coefficient (logP). The note with it: octanol/water.
The nature of data set [2]: Compound was evaluated for distribution coefficient. The note with it: octanol/water.
Data set [3] is described as follows: Compound was evaluated for pKa by titration of the compounds in 1:2 methyl alcohol and water. The note with it: read-out: pKa app.
Data set [4] in a line: Compound was evaluated for pKa by titration of the compounds in 1:2 methyl alcohol and water. The note with it: read-out: pKa app.

A word on the logP: it is a log measure of how a compound divides between an organic and an aqueous phase. Read a low logP as lower lipophilicity. A word on the logD: it is lipophilicity at a set pH, counting ionised and neutral species. The low end stands for a more hydrophilic compound, the high end for a more lipophilic compound. In general, pKa refers to the negative logarithm of the acid dissociation constant. `CC(C)NCC(O)c1ccc(Cl)c(Cl)c1` (stereo unspecified) [DICHLOROISOPROTERENOL]: the logP in data set [1] was 2.55. The same compound gave a logD in data set [2] of 1.26. Moreover, the pKa in data set [3] was determined as 8.7.

`COc1cc(C[C@@H]2NCCc3cc(O)c(O)cc32)cc(OC)c1OC` [TRETOQUINOL] came in with a logP in data set [1] of 2.23. For the same compound, the logD in data set [2] came out at 1.79. The pKa in data set [4] amounted to 7.6.

The values above are taken from ChEMBL document CHEMBL1123372, “6,7-Dichloro-1-(3,4,5-trimethoxybenzyl)-1,2,3,4-tetrahydroisoquinoline . A structurally novel beta-adrenergic receptor blocking agent” (J Med Chem, 1986).
